ChEMBL document CHEMBL1201862, “PubChem BioAssay data set” (2004)
Activity calls are given as the source filed them.

Columns and labels:
[1] = biological target: Neurotensin receptor type 1 (Homo sapiens, UniProt P30989); type: functional;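 further: Image-based confirmatory dose-response assay measuring agonist activity at NTR1; NTR1-expressing U2OS osteosarcoma cells imaged for beta-arrestin GFP spot formation; agonist potency where compounds increase beta-arrestin recruitment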
[2] = biological target: T1, Microphthalmia-associated transcription factor (Homo sapiens, UniProt O75030); test: TRPM1 promoter luciferase signal decrease, dose response, MITF inhibitor project, cell-based, SK-MEL-5, cherry-picked, set 3 (AID 493073); type: functional
T1 sequence (O75030 whole entry): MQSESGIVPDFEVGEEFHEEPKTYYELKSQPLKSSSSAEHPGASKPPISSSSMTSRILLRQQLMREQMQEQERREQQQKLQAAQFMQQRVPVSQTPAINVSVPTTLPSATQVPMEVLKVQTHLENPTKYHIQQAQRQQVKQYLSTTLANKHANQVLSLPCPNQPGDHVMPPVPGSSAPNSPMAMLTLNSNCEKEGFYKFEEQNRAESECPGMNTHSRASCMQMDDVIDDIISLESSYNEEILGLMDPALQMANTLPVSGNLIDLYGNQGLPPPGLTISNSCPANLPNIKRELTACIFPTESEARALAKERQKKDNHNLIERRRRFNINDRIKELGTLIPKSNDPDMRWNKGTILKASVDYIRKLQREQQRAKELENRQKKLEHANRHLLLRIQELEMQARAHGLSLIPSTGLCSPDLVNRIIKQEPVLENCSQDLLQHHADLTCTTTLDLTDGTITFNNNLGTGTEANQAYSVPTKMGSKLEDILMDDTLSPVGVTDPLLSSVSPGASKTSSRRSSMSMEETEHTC

[3] = THP-1 cell cytotoxicity, dose response, cytotoxicity control for Vif-APOBEC3G degradation inhibitor project, THP-1 cells (AID 1117359); type: functional; conditions: Human immunodeficiency virus 1, THP-1
Streptococcus = test: Group A Streptococcus viability loss, dose response, counter-screen for streptokinase expression inhibitor project, luminescence, BacTiterGlo (AID 1915); type: functional, organism-based; conditions: read-out: EC50;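 further: potency for reduction of bacterial viability or growth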
Streptokinase A = biological target: T2, Streptokinase A (Streptococcus pyogenes serotype M1, UniProt P10520); test: S. pyogenes streptokinase expression inhibitors, potency, dose response, plasminogen activation absorbance, OD405 (AID 1914); type: functional, Streptococcus pyogenes M1 GAS;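 further: secreted streptokinase activity via plasminogen activation per viability signal from cell pellet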
T2 sequence (P10520 whole entry): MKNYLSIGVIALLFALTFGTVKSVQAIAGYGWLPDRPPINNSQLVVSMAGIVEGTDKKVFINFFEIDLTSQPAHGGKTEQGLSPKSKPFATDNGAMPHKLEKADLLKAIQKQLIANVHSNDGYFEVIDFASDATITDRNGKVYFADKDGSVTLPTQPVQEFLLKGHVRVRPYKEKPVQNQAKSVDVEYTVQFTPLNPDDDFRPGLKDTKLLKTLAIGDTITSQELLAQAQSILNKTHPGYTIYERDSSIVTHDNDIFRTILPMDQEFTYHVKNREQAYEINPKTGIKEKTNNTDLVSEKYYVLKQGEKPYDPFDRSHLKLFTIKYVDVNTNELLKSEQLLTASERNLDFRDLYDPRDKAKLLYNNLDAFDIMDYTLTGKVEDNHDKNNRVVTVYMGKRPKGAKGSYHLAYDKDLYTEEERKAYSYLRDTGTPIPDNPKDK

[4] = tested on: Streptococcus sp. 'group A'; test: growth inhibition of control SK(-) GAS strain, dose response, counter-screen for streptokinase expression inhibitor project, luminescence, kanamycin, BacTiterGlo, confirmation (AID 1900); type: functional, organism-based
[5] = biological target: T3, Eukaryotic translation initiation factor 2-alpha kinase 3 (Homo sapiens, UniProt Q9NZJ5); test: Counterscreen assay for PERK inhibitors: Dose response cell-based high throughput screening assay to measure inhibition of PERK at 6 hours. [Related pubchem assays: 1522, 1416 ]; type: functional
T3 sequence (Q9NZJ5 whole entry): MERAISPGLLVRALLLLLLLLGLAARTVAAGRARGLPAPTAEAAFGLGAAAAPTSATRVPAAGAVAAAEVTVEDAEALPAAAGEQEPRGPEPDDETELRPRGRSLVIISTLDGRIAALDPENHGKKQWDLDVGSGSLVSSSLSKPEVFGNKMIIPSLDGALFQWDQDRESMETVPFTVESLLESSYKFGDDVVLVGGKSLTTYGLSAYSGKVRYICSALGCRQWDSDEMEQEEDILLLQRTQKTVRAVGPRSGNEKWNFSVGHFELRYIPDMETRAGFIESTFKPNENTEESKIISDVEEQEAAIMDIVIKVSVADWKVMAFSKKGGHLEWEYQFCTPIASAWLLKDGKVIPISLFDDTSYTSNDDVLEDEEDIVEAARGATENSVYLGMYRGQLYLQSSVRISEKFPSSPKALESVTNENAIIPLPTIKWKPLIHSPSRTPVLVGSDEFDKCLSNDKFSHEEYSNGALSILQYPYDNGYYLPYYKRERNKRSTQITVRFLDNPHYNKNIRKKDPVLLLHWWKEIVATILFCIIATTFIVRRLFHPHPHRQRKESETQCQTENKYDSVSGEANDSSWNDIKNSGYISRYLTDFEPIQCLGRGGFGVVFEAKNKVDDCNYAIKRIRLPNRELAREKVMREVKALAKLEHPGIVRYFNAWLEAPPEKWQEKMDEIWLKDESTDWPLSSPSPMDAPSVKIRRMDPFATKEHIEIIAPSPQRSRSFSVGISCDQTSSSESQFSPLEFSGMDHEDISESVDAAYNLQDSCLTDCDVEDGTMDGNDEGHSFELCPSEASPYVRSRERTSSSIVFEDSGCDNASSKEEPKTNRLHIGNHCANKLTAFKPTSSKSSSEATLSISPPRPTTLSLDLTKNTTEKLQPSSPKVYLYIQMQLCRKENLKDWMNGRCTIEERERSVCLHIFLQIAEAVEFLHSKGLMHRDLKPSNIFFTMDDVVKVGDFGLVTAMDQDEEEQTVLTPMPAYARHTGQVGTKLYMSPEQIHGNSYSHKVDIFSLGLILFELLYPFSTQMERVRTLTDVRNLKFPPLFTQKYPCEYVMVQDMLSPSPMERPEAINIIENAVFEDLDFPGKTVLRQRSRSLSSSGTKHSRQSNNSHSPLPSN

[6] = biological target: T3, Eukaryotic translation initiation factor 2-alpha kinase 3; test: Dose response cell-based high-throughput screening assay to measure PERK inhibition. [Related pubchem assays: 1416 ]; type: functional
[7] = biological target: Luciferin 4-monooxygenase (Photinus pyralis, UniProt P08659); test: firefly luciferase enzyme inhibitors, dose response, biochemical, luminescence (AID 1891)
Chain of Luciferin 4-monooxygenase (P08659 whole entry): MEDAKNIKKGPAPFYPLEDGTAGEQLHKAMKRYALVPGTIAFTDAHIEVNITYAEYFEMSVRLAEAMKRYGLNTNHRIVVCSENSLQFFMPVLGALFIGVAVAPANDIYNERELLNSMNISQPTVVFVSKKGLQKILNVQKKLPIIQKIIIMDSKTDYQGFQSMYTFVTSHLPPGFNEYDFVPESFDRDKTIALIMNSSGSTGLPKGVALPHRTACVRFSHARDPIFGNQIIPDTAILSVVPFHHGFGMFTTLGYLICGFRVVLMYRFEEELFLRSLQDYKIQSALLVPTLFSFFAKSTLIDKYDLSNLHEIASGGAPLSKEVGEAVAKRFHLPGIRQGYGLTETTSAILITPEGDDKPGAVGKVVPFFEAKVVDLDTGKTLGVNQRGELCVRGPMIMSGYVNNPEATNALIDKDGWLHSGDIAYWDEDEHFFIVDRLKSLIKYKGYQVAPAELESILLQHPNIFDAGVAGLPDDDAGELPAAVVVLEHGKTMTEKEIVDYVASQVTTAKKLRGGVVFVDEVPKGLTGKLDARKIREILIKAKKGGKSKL

Hexokinase HKDC1 = biological target: T4, Hexokinase HKDC1 (Homo sapiens, UniProt Q2TB90); test: HKDC1 hexokinase inhibitors, dose response, biochemical, W721R variant (AID 504729); type: functional
T4 sequence (Q2TB90 whole entry): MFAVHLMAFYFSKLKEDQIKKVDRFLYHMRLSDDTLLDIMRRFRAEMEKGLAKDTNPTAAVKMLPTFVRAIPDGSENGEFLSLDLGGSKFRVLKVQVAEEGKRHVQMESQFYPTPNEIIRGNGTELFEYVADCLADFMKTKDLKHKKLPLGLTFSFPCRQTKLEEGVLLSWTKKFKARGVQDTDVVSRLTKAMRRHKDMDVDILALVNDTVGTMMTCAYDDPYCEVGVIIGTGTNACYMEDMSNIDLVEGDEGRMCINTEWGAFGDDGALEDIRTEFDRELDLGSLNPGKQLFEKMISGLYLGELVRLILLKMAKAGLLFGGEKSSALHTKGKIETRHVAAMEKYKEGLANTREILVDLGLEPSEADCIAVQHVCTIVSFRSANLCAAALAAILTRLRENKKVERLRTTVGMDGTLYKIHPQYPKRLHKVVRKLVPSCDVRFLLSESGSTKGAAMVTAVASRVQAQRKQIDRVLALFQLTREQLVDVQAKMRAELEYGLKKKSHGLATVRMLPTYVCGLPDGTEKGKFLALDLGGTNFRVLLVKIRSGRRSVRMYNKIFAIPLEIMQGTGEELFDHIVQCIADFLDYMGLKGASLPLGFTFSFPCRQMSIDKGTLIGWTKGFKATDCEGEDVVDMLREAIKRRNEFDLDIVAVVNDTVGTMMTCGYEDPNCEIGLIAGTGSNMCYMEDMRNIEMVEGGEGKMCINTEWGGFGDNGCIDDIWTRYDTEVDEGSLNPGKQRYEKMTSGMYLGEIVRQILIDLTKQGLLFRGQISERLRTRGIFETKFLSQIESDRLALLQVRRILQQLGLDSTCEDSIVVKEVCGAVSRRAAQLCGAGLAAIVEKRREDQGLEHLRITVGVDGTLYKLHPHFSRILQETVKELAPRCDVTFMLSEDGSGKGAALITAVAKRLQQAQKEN

[8] = Luminescence Cell-Based Dose Confirmation HTS to Identify Inhibitors of Platelet Dense Granule Release. [Related pubchem assays: 1663 (Primary HTS), 1678 (Summary of Project)]; type: functional
[9] = THP-1 cell cytotoxicity, dose response, cytotoxicity control for non-replicating M. tuberculosis project (AID 489025); type: functional
[10] = Vero E6 cell cytotoxicity, dose response, cytotoxicity control for non-replicating M. tuberculosis project, secondary assay (AID 492998); type: functional, VeroE6; conditions: Vero C1008
[11] = HepG2 cell cytotoxicity, dose response, cytotoxicity control for non-replicating M. tuberculosis project (AID 489018); type: functional; conditions: Mycobacterium tuberculosis
cells = type: functional

Chain of Neurotensin receptor type 1 (P30989 whole entry): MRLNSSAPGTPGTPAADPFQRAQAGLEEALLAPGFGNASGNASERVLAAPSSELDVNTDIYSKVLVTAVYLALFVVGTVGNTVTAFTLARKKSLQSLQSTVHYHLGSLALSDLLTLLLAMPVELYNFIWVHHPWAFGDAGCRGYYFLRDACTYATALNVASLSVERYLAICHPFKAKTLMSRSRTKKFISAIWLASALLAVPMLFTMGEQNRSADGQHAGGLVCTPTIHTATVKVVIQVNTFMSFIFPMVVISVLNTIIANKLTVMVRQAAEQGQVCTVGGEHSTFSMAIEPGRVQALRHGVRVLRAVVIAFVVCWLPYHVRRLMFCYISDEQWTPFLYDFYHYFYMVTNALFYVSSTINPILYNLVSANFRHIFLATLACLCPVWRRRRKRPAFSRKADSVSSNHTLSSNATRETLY

CC(=O)n1cc(C(C[N+](=O)[O-])SCCN)c2ccccc21 (stereo not drawn)
EC50 [1]: 14.2 µM (active)

CN1C(=O)/C(=C/c2cccn2-c2ccc3ccccc3c2)C(=O)NC1=S
AC50 [2]: 9.42 µM (active)
CC50 [3]: 14.5 µM (active)
EC50 (Streptococcus): > 50 µM (not active)
EC50 (Streptokinase A): 4.97 µM (active)
EC50 [4]: 5.56 µM (active)
EC50 [1]: 12.1 µM (active)

Cc1csc2nc(CNC(=O)CCC(=O)O)cn12
EC50 [5]: > 55.7 µM (not active)
EC50 [6]: > 55.7 µM (not active)

CC(C)c1nc2oc3c(NCC4CCCO4)ncnc3c2c2c1COC(C)(C)C2 (stereo not drawn)
EC50 [7]: > 112 µM (not active)
IC50 (Hexokinase HKDC1): 3.81 µM (active)
EC50 [8]: > 112 µM (not active)

O=c1c2cc(Cl)ccc2nc(-c2ccc(Cl)c(Cl)c2)n1O
CC50 [9]: 14.2 µM (active)
EC50 (Streptococcus): 0.949 µM (active)
CC50 [10]: 10.9 µM (active)
CC50 [11]: > 20 µM (active)
EC50 [4]: 0.402 µM (active)
IC50 (cells): 4.14 µM (active)
